According to US10351915B2 (Berg LLC, priority 2009, dated 2019):

System: Lactate Dehydrogenase (LDH)
Test: Western blot, Lactate Dehydrogenase levels
Type: cell-based, human
Procedure: In this experiment, the cells were additionally treated with either 5 mM glucose (“5G”) or 22 mM glucose (“22G”). The samples derived from the cells were processed and run on a 4-12% Bis-Tris Novex NuPAGE gel as described above. The gels were run, transferred and stained essentially as described above.
After transfer each blot was dried for 15-20 minutes, activated with methanol for 5 seconds, washed with water for 5 minutes, and TBST for 15 minutes. The blots were blocked for 1 hour with 5% blocking reagent in TBS-T at room temperature and then washed 3 times with TBS-T (1×-15′; 2×5′ each) and probed with the primary antibody for Lactate Dehydrogenase (abcam ab2101; polyclonal) in 5% BSA (at 1:1000 dilutions) by incubation overnight at 4 deg C. with shaking. After the overnight incubation with primary antibody for Lactate Dehydrogenase, the blots were washed 3 times with TBS-T (1×-15′; 2×5′ each) and probed with the secondary antibody (rabbit antigoat; 1:10,000 dilution) for 1 h at room temperature. After 1 h of incubation with secondary antibodies, the blots were washed 3 times with TBS-T (1×-15′; 2×5′ each) and then incubated with ECF reagent for 5 mins and then each blot scanned with 5100 Fuji Laser scanner at 25 uM resolution, 16 bit, green laser, at 400V and at 500 V.
In this experiment, the cells were additionally treated with either 5 mM glucose (“5G”) or 22 mM glucose (“22G”). The samples derived from the cells were processed and the gels were run, transferred, stained and scanned essentially as described above.
The levels of LDH and PDH were determined by probing the blots successively with primary antibodies for LDH and PDH, essentially as described above.
The above blots were stripped by incubating for 30 minutes with methanol, followed by two 10 minute washes with TBS-T, then 30 minutes of incubation with Stripping buffer at 50 deg C., and followed by two washes with 100 ml or more of TBS-T for 30′ each. The blots were scanned in laser scanner to check for complete stripping. […]

COC1=C(OC)C(=O)C(C/C=C(\C)CC/C=C(\C)CC/C=C(\C)CC/C=C(\C)CC/C=C(\C)CC/C=C(\C)CC/C=C(\C)CC/C=C(\C)CC/C=C(\C)CCC=C(C)C)=C(C)C1=O [Q10, Coenzyme Q10] was tested, and the “Lactate Dehydrogenase Normalized Volume (24 h)” value (HepG2, 5g glucose, 24 h, amount 50) was 7900, the LDH expression (cancer) was “reduced” and the LDH expression (normal cells) was “minimal effect”.
